Values quoted from earlier work as cited in patent US10487097B2, “4,6-di-(O-thiophosphate)-inositol-1,2,3,5-tetra-O-sulfate for C. difficile infection” (priority 2015, dated 2019).

Conditions: colon lumen, background statement

O=P(O)(O)O[C@H]1[C@H](OP(=O)(O)O)[C@@H](OP(=O)(O)O)[C@H](OP(=O)(O)O)[C@@H](OP(=O)(O)O)[C@H]1OP(=O)(O)O [IP6, inositol hexakisphosphate]
precipitation due to high calcium concentration: precipitates
